This note sets out measurements from ChEMBL document CHEMBL1133236, “Synthesis and antifungal activities of 5/6-arylamino-4,7-dioxobenzothiazoles” (Bioorg Med Chem Lett, 2000).

≈ marks a conversion by molar mass, not a printed value.

One may read the MIC as the smallest concentration in the dilution series that meets the test's criterion for growth inhibition. Read a low MIC as inhibition by little substance. Usually IC50 stands for the concentration at which inhibition is half-maximal.

Assay [1] relates to Aspergillus niger. Description: Antifungal activity against Aspergillus niger KCTC 1231. It is filed as functional.
Assay [2] relates to Pichia kudriavzevii. Description: Antifungal activity against Candida krusei ATCC 749. It is filed as functional.
The subject of assay [3] is Candida tropicalis. Description: Antifungal activity against Candida tropicalis ATCC 28775. It is filed as functional.
For assay [4], the system named is HepG2. Briefly: In vitro cytotoxicity against HepG2 cells (Hepatocarcinoma from ATCC) by MTT assay. It is filed as functional, cell-based, Homo sapiens.
The test system of assay [5] is Candida albicans. Description: Antifungal activity against Candida albicans ATCC 10231. The class given is functional.
Setting [6] is: Homo sapiens, HepG2, read-out: IC50.

As to `O=C1C=C(Nc2ccc(F)cc2)C(=O)c2scnc21`, the MIC in assay [1] is 3.2 µg/mL (≈ 11.7 µM); in assay [2], 3.2 µg/mL (≈ 11.7 µM); in assay [3], 6.3 µg/mL (≈ 23 µM); in assay [5] it was 12.5 µg/mL (≈ 45.6 µM). Besides, in assay [4] (setting [6]), the IC50 was determined as 17.9 µg/mL (≈ 65.3 µM).

Take `Cc1nc2c(s1)C(=O)C=C(Nc1cccc(Br)c1)C2=O`: the MIC in assay [1] was 12.5 µg/mL (≈ 35.8 µM); in assay [2] it was 6.3 µg/mL (≈ 18 µM); in assay [3], 0.8 µg/mL (≈ 2.29 µM); in assay [5] it was 12.5 µg/mL (≈ 35.8 µM). Moreover, the IC50 in assay [4] (setting [6]) is 15 µg/mL (≈ 43 µM).

For `COC1=CC(=O)c2sc(C)nc2C1=O`, the MIC in assay [1] came to 12.5 µg/mL (≈ 59.7 µM); in assay [2], 50 µg/mL (≈ 239 µM); in assay [3] it was 25 µg/mL (≈ 119 µM); in assay [5] it was 25 µg/mL (≈ 119 µM).

On to `O=C1C=C(Nc2ccc(OC(F)(F)F)cc2)C(=O)c2scnc21`, for which the MIC in assay [1] turned out to be 3.2 µg/mL (≈ 9.4 µM); in assay [2], 3.2 µg/mL (≈ 9.4 µM); in assay [3] it was 12.5 µg/mL (≈ 36.7 µM); in assay [5] it was 12.5 µg/mL (≈ 36.7 µM). In addition, the IC50 in assay [4] (setting [6]) was more than 100 µg/mL.

Regarding `Cc1ccc(NC2=CC(=O)c3sc(C)nc3C2=O)cc1`, the MIC in assay [1] stood at 12.5 µg/mL (≈ 44 µM); in assay [2], 1.6 µg/mL (≈ 5.63 µM); in assay [3], 1.6 µg/mL (≈ 5.63 µM); in assay [5], 6.3 µg/mL (≈ 22.2 µM). The half-maximal inhibitory concentration (IC50) in assay [4] (setting [6]) stood at 1.2 µg/mL (≈ 4.22 µM).

For the molecule `COC1=CC(=O)c2ncsc2C1=O`, the MIC in assay [1] stood at 25 µg/mL (≈ 128 µM); in assay [2], 12.5 µg/mL (≈ 64 µM); in assay [3] it was 25 µg/mL (≈ 128 µM); in assay [5], 50 µg/mL (≈ 256 µM).

On to `Cc1nc2c(s1)C(=O)C=C(Nc1ccccc1)C2=O`, for which the MIC was 12.5 µg/mL (≈ 46.2 µM) in assay [1], 0.4 µg/mL (≈ 1.48 µM) in assay [2], 1.6 µg/mL (≈ 5.92 µM) in assay [3] and 6.3 µg/mL (≈ 23.3 µM) in assay [5]. Moreover, the IC50 in assay [4] (setting [6]) is 1.5 µg/mL (≈ 5.55 µM).

Consider `Cc1nc2c(s1)C(=O)C=C(Nc1ccc(Cl)cc1)C2=O`, for which the MIC in assay [1] is 6.3 µg/mL (≈ 20.7 µM); in assay [2], 25 µg/mL (≈ 82 µM); in assay [3], 25 µg/mL (≈ 82 µM); in assay [5], 12.5 µg/mL (≈ 41 µM). Moreover, the IC50 in assay [4] (setting [6]) is 3.4 µg/mL (≈ 11.2 µM).

With `Cc1nc2c(s1)C(=O)C=C(Nc1ccc(F)cc1)C2=O`, the MIC is 3.2 µg/mL (≈ 11.1 µM) in assay [1], 3.2 µg/mL (≈ 11.1 µM) in assay [2], 6.3 µg/mL (≈ 21.9 µM) in assay [3] and 3.2 µg/mL (≈ 11.1 µM) in assay [5]. Also, the IC50 in assay [4] (setting [6]) was determined as 1.6 µg/mL (≈ 5.55 µM).

Regarding `CCOc1ccc(NC2=CC(=O)c3sc(C)nc3C2=O)cc1`, the MIC in assay [1] was 1.6 µg/mL (≈ 5.09 µM); in assay [2], 3.2 µg/mL (≈ 10.2 µM); in assay [3], 6.3 µg/mL (≈ 20 µM); in assay [5] it was 3.2 µg/mL (≈ 10.2 µM). For the same molecule, the IC50 in assay [4] (setting [6]) turned out to be 4.9 µg/mL (≈ 15.6 µM).

Take `Cc1nc2c(s1)C(=O)C=C(Nc1cccc(Cl)c1)C2=O`: the MIC stood at 12.5 µg/mL (≈ 41 µM) in assay [1], 6.3 µg/mL (≈ 20.7 µM) in assay [2], 6.3 µg/mL (≈ 20.7 µM) in assay [3] and 12.5 µg/mL (≈ 41 µM) in assay [5]. In addition, the IC50 in assay [4] (setting [6]) was found to be 5.7 µg/mL (≈ 18.7 µM).

`Cc1nc2c(s1)C(=O)C=C(Nc1ccc(C)c(C)c1)C2=O`: the MIC amounted to 12.5 µg/mL (≈ 41.9 µM) in assay [1], 3.2 µg/mL (≈ 10.7 µM) in assay [2], 0.4 µg/mL (≈ 1.34 µM) in assay [3] and 12.5 µg/mL (≈ 41.9 µM) in assay [5]. In addition, the half-maximal inhibitory concentration (IC50) in assay [4] (setting [6]) turned out to be 4.8 µg/mL (≈ 16.1 µM).

For the molecule `O=C1C=C(Nc2ccc(Cl)cc2)C(=O)c2scnc21`, the MIC amounted to 12.5 µg/mL (≈ 43 µM) in assay [1], 25 µg/mL (≈ 86 µM) in assay [2], 12.5 µg/mL (≈ 43 µM) in assay [3] and 12.5 µg/mL (≈ 43 µM) in assay [5]. Further, in assay [4] (setting [6]), the IC50 was 16.4 µg/mL (≈ 56.4 µM).

Regarding `O=C1C=C(Nc2ccccc2)C(=O)c2scnc21`, the MIC turned out to be 3.2 µg/mL (≈ 12.5 µM) in assay [1], 6.3 µg/mL (≈ 24.6 µM) in assay [2], 6.3 µg/mL (≈ 24.6 µM) in assay [3] and 12.5 µg/mL (≈ 48.8 µM) in assay [5]. In addition, the IC50 in assay [4] (setting [6]) is 14.7 µg/mL (≈ 57.4 µM).

In the case of `CCOc1ccc(NC2=CC(=O)c3ncsc3C2=O)cc1`, the MIC is 3.2 µg/mL (≈ 10.7 µM) in assay [1], 6.3 µg/mL (≈ 21 µM) in assay [2], 12.5 µg/mL (≈ 41.6 µM) in assay [3] and 12.5 µg/mL (≈ 41.6 µM) in assay [5]. Also, the IC50 in assay [4] (setting [6]) came out at 23.6 µg/mL (≈ 78.6 µM).

`O=C1C=C(Nc2cccc(F)c2)C(=O)c2scnc21`: the MIC is 1.6 µg/mL (≈ 5.83 µM) in assay [1], 3.2 µg/mL (≈ 11.7 µM) in assay [2], 12.5 µg/mL (≈ 45.6 µM) in assay [3] and 12.5 µg/mL (≈ 45.6 µM) in assay [5]. The IC50 in assay [4] (setting [6]) was more than 100 µg/mL.

Turning to `CCCCCCc1ccc(NC2=CC(=O)c3sc(C)nc3C2=O)cc1`, the MIC is 12.5 µg/mL (≈ 35.3 µM) in assay [1], 12.5 µg/mL (≈ 35.3 µM) in assay [2], 6.3 µg/mL (≈ 17.8 µM) in assay [3] and 12.5 µg/mL (≈ 35.3 µM) in assay [5]. In addition, the IC50 in assay [4] (setting [6]) was found to be 22 µg/mL (≈ 62.1 µM).

Regarding `Cc1nc2c(s1)C(=O)C=C(Nc1ccc(OC(F)(F)F)cc1)C2=O`, the MIC was determined as 6.3 µg/mL (≈ 17.8 µM) in assay [1], 25 µg/mL (≈ 70.6 µM) in assay [2], 0.8 µg/mL (≈ 2.26 µM) in assay [3] and 12.5 µg/mL (≈ 35.3 µM) in assay [5]. In addition, in assay [4] (setting [6]), the IC50 is more than 100 µg/mL.

For `Cc1nc2c(s1)C(=O)C=C(Nc1ccc(C(F)(F)F)cc1)C2=O`, the MIC in assay [1] worked out at 6.3 µg/mL (≈ 18.6 µM); in assay [2], 3.2 µg/mL (≈ 9.46 µM); in assay [3] it was 12.5 µg/mL (≈ 36.9 µM); in assay [5], 12.5 µg/mL (≈ 36.9 µM). The IC50 in assay [4] (setting [6]) was more than 100 µg/mL.

Consider `Nc1nc(=O)[nH]cc1F` [FLUCYTOSINE], for which the minimum inhibitory concentration (MIC) in assay [1] came out at 1.6 µg/mL (≈ 12.4 µM); in assay [2] it was 3.2 µg/mL (≈ 24.8 µM); in assay [3] it was 50 µg/mL (≈ 387 µM); in assay [5], 3.2 µg/mL (≈ 24.8 µM).

CISPLATIN had an IC50 in assay [4] (hepg2) of 0.33 µg/mL.
